What all share (format): cell-based
Data set [1] deals with Plasmodium falciparum FCR-3 strain. Nature of the data set: Drug sensitive-Plasmodium falciparum growth inhibition screening test. The conditions noted are these: for EC50: Plasmodium falciparum, FCR3, Erythrocyte, read-out: 50% growth inhibition concentration P. falciparum FCR; for Selective toxicity: chemotherapy index = EC50 mouse FM3A cells / EC50 drug sensitive P. falciparum. The method, then:
In the present example, protozoa of Plasmodium falciparum FCR-3 strain was used. RPMI-1640 medium sterilized with a filter was used in the experiment. pH was adjusted to 7.4, and human serum was added to be 10%. Malarial parasites were cultured under 5% O2 concentration, 5% CO2 concentration, 90% N2 concentration, and at a temperature of 36.5° C.
Cultured malarial parasite infected-erythrocytes were collected by centrifugation, and washed in a medium containing serum. Non-infected erythrocytes were added so that the primary infection rate is 0.3%. Hematocrit level at that time was 3%. The compounds of the present invention to be used in the test and the positive target drugs (chloroquine, quinine) were dissolved in dimethylsulfoxide (DMSO) to make a test solution of a predetermined concentration. The test solution was added in an amount of 5 to 10 μl in a 24-well culture plate. To the control, DMSO was added in an amount of 10 μL/well. Test solutions were taken by duplicates. Subsequently, Plasmodium falciparum culture solution previously prepared to a predetermined concentration was added, pipetted quietly, and suspended in the medium similarly. Culture plate was cultured for 72 hours in a CO2—O2—N2(5%, 5%, 90%) incubator. Thin layer smear preparations were prepared for each well, and after performing Diff-Quick staining, the preparations were measured with a microscope (oil immersion, 1,000×), and malarial parasite infection rates of the test solution added-group and of the control group were calculated. Growth inhibition rate was calculated with the following formula from the malarial parasite infection rate obtained in the above, to obtain a 50% growth inhibition concentration (EC50). Growth inhibition rate (%)={1−(b−a)/(c−a)}×100 a: early infection rate b: infection rate when test solution was added c: infection rate of the control

Data set [2] in a line: Growth inhibition test of mouse FM3A cells. As for the experimental part:
F28-7 strain which is a wild-type of the mouse breast cancer derived FM3A cell was used. As for a medium, immobilized fetal bovine serum was added to a ES medium at 2%, which medium was cultured under CO2 concentration 5%, at 37° C. Doubling time of FM3A cells under that condition was approximately 12 hours. Pre-culture was conducted and cells which have entered the logarithmic growth phase were diluted in a medium to be 5×10^4 cells/mL Those prepared when measuring malarial activity were used as a sample. Sample solution was added in an amount of to 10 μL in a 24-well culture plate (the final concentration was 1×10^−4 to 1×10^−5, by adding media etc). Compounds were taken by duplicates, and wells added with 10 μL DMSO were prepared at the same time as a control. Next, cultured cell suspension previously prepared was added in an amount of 990 to 995 μL, pipetted quietly and suspended in a medium similarly. After culturing 48 hours, the cells were counted with a cell controller (CC-108, Toa. Medical Electrics) for each well. Growth rate was calculated with the following formula, to obtain a 50% growth inhibition rate (EC50). Growth rate (%)={(C−A)/(B−A)}×100 A: primary cell count B: cell count of the control, 2 days after C: cell count of wells added with a sample, 2 days after
Cell growth inhibiting activity was calculated from cell count of wells added with a sample, and cell count of the control.

The nature of data set [3]: Growth inhibition test of rat L6 cells. The conditions noted are these: L6 cells (rat skeletal myoblast), Alamar Blue (Table 2), read-out: 50% growth inhibition concentration Cytotoxicity L6. The method, then: Rat derived-L6 cells (rat skeletal myoblast cell) were used. As medium, RPMI1640 medium was supplemented so that L-glutamin (200 mM) is 1%, and fetal bovine serum 10%, and the medium was cultured under CO2 concentration 5%, at 37° C. The compounds of the present invention and the target drugs to be used in the test were dissolved in DMSO, to make a test solution of a predetermined concentration. Pre-culture was conducted and medium containing cells which have entered the logarithmic growth phase was taken to wells of a 96-well culture plate. Then, a test solution containing drug of a predetermined concentration or a drug-free DMSO was added. Test solutions were taken by duplicates. Culture plate was cultured for 72 hours in an incubator, to test the growth inhibition activity. Test was conducted as follows.
10 μl of Alamar Blue aqueous solution was added to each well, and the resultant was further cultured for 2 hours. Next, the culture plate was placed on a fluorescent micro-plate reader (Spectramax Gemeni XS; US Molecular Device), radiated at an excited wavelength of 536 nm. Fluorescent intensity was measured at 588 nm, and residual rate of L6 cells of the test solution added group, and that of the control was calculated. Based on the cell residual rate obtained in the above, growth inhibition rate to L6 cells was calculated, to obtain a 50% growth inhibition concentration (EC50). Growth inhibition rate (%)={(C−A)/(B−A)}×100 A: primary cell count B: cell count of control, 3 days after C: cell count of wells added with a sample, 3 days after […]
Background: The colour change of resazurin is a common sign of viable cells or microbes.

The subject of data set [4] is Leishmania donovani (MHOM/ET/67/L82 strain). The data set is described as follows: Leishmania protozoa growth inhibition screening test. The conditions noted are these: chemotherapy index = EC50 rat L6 cells / EC50 leishmania protozoa.
For data set [5] the test system is unchanged. Described as above. The conditions noted are these: Leishmania donovani; MHOM/ET/67/L82 strain amastigote, pH 5.4, 72 hours, Alamar Blue; read-out: 50% growth inhibition concentration Leishmania donovani. As for the experimental part: In the present example, Leishmania donovani (MHOM/ET/67/L82 strain) was used. Protozoa was subcultured in Syrian Golden hamster, from which an amastigote was obtained. In the experiment, SM medium supplemented with 10% heat-treated bovine fetal serum was used, which was adjusted to pH 5.4, and cultured in an atmosphere of 5% CO2 concentration, at 37° C.
The compounds of the present invention to be used in the present test and the positive target drug (miltefosine) were dissolved in DMSO to make a test solution of a predetermined concentration. After adding a medium containing a predetermined number of protozoa to wells of a 96-well culture plate and pre-treating, concentration of the amastigote was measured with CASY cell analysis system (Scharfe, Germany). Then, test solution containing a drug of a predetermined concentration or a drug-free DMSO was added. Test solutions were taken by duplicates. After culturing the culture plate for 72 hours in an incubator, growth inhibition activity was tested. Test was conducted as follows.
10 μL of Alamar Blue aqueous solution was added to each well, and the resultant was further cultured for 2 hours. Next, the culture plate was placed on a fluorescent micro-plate reader (Spectramax Gemeni XS; US Molecular Device), radiated at an excited wavelength of 536 nm. Fluorescent intensity was measured at 588 nm, and infection rate of leishmania protozoa of the test solution added-group and control was calculated, to obtain a 50% growth inhibition concentration (EC50). Growth inhibition rate (%)={1−(b−a)/(c−a)}×100 a: early infection rate b: infection rate when test solution was added c: infection rate of the control

The subject of data set [6] is Trypanosoma brucei rhodensiense (STIB 900 strain). Nature of the data set: African trypanosome protozoa growth inhibition screening test. The conditions noted are these: chemotherapy index = EC50 rat L6 cells / EC50 African trypanosome protozoa.
In data set [7] the test system is Plasmodium falciparum K1 strain. The data set is described as follows: Chloroquine resistant-Plasmodium falciparum growth inhibition screening test. The method, then: In the present example, protozoa of Plasmodium falciparum K1 strain was used. RPMI-1640 medium sterilized with a filter to which human serum was added to be 5%, was used in the experiment. Malarial parasites were cultured under 3% O2 concentration, 4% Co2 concentration, 93% N2 concentration, and at a temperature of 37° C.
The compounds of the present invention to be used in the present test and the positive target drug (chloroquine) were dissolved in DMSO to make a test solution of a predetermined concentration. Cultured malarial parasite infected-erythrocytes were collected by centrifugation, and diluted with non-infected erythrocyte so that the early infection rate is 0.15%. Hematocrit level at that time was 2.5%. 200 μL of malaria infected solution was added to wells of a 96-well culture plate, and adjusted by adding a test solution containing drug of a predetermined concentration or a drug-free DMSO. Test solutions were taken by duplicates. After culturing for 48 hours at 37° C., 0.5 μCi radioactive tritium (3H)-labeled hypoxanthine was added to each well. After further culturing for 24 hours under the same conditions, it was collected on a glass fiber filter and washed with distilled water. Radiation intensity was measured with a beta plate liquid scintillation counter (Wallac), and malarial parasite infection rates of the test solution added group and of the control group were calculated. Growth inhibition rate was calculated with the following formula based on the malarial parasite infection rate obtained in the above, to obtain a 50% growth inhibition concentration (EC50). Growth inhibition rate (%)={1−(b−a)/(c−a)}×100 a: early infection rate b: infection rate when test solution was added c: infection rate of the control

The test system of data set [8] is Trypanosoma brucei rhodensiense (STIB 900 strain). The data set is described as follows: African trypanosome protozoa growth inhibition screening test. The conditions noted are these: Trypanosoma brucei, STIB900; STIB 900 strain, blood stream form, 72 hours, Alamar Blue; read-out: 50% growth inhibiting concentration Trypanosoma brucei rhod. As for the experimental part:
In the present example, protozoa of Trypanosoma brucei rhodensiense (STIB 900 strain), a trypamastigote living in blood stream, was used. The medium used in the experiment was a MEM medium which was sterilized with a filter and supplemented with 25 mM N-2-hydroxyethylpiperazine-2-ethansulfonic acid […]), 1 g/L glucose, 1% MEM non-essential amino acid, 0.2 mM 2-mercaptoethanol, 2 mM sodium pyruvate, 0.1 mM hypoxanthine, and 15% heat-treated horse serum. The protozoa was cultured in an atmosphere of CO2 concentration 5%, at a temperature of 37° C.
The compounds of the present invention to be used in the present test and the positive target drug (melarsoprol) were dissolved in DMSO to make a test solution of a predetermined concentration. A medium containing 8×10^3 protozoa, and a test solution containing a drug of a predetermined concentration or a drug-free DMSO were added to wells of a 96-well culture plate, and subsequently, medium was added so that the amount in each well becomes 100 μL. Test solutions were taken by duplicates. After culturing the culture plate for 72 hours in an incubator, growth inhibition activity was tested. Test was conducted as follows. 10 μL of Alamar Blue aqueous solution was added to each well, and the resultant was further cultured for 2 hours. Next, the culture plate was placed on a fluorescent micro-plate reader (Spectramax Gemeni XS; US Molecular Device), radiated at an excited wavelength of 536 nm. Fluorescent intensity was measured at 588 nm, to calculate the trypanosome protozoa infected rate of the test solution added-group, and of the control group. From the protozoan infection rate obtained in the above, growth inhibition rate was calculated with the following formula, to obtain a 50% growth inhibition concentration (EC50). Growth inhibition rate (%)={1−(b−a)/(c−a)}×100 a: early infection rate b: infection rate when test solution was added c: infection rate of the control

Where [9] appears, read: drug sensitive FCR-3 strain, infected erythrocytes, cultured 72 hours, microscopy.

Read-outs that look alike come from different tables or passages of the source.

Regarding `CCn1c(=O)/c(=C/C=C2\Sc3ccc4ccccc4c3N2C)s/c1=C\c1sc2ccc3ccccc3c2[n+]1CC` [A-2], in data set [1] (setting [9]), the EC50 was determined as 100 nM. The Selective toxicity in data set [1] came to 8. The EC50 at 48 h in data set [2] (mouse) is 800 nM.
For `CCn1c(=O)/c(=C/C=C2\Sc3ccc4ccccc4c3N2C)s/c1=C\c1scc(C)[n+]1CC` [A-3] the same measures were 75 nM, 20 and 1500 nM.
The corresponding values for `CCN1C=CC=C/C1=C\C=c1/s/c(=C\c2cc[n+](CC)c3ccccc23)n(CC)c1=O` [A-11] are 600 nM, greater than 23 and greater than 14000 nM.
As for `CCN1CCS/C1=C\C=c1/s/c(=C\c2sc3c4ccccc4ccc3[n+]2CCO)n(CC)c1=O` [A-17], the EC50 at 72 h in data set [3] came to 53000 nM. For the same compound, the results for the Selective toxicity in data set [4], in data set [6] and in data set [7] (chemotherapy index = EC50 rat L6 cells / EC50 chloroquine resistant P. falciparum) were 4800, 570 and 1400, respectively. The EC50 in data set [5] was determined as 11 nM; in data set [7] (Plasmodium falciparum, 72 h, chloroquine resistant K1 strain, 3H-hypoxanthine, 48 + 24 hours, read-out: 50% growth inhibition concentration P. falciparum K1), 38 nM; in data set [8], 93 nM.
On to `CCN(CC)CCCC(C)Nc1ccnc2cc(Cl)ccc12` (stereo not shown) [chloroquine, reference compound], for which, in data set [1] (72 h), the EC50 stood at 18 nM. For the same compound, the Selective toxicity in data set [1] came to 1780. For the same compound, the EC50 at 48 h in data set [2] (mouse FM3A cells, 48 hours, cell count (Table 1), read-out: 50% growth inhibition concentration Cytotoxicity FM3A) was found to be 32000 nM.
Turning to `C=C[C@H]1C[N@@]2CC[C@H]1C[C@H]2[C@H](O)c1ccnc2ccc(OC)cc12` [quinine, reference compound], the EC50 in data set [1] (setting [9]) is 110 nM. The Selective toxicity in data set [1] stood at 910. In data set [2] (mouse), the EC50 at 48 h was found to be 100000 nM.

For the origin of these results see patent US8193224B2, “Medicinal composition for prevention or treatment of parasitic protozoan infection” (Fujifilm Corporation, priority 2004, dated 2012).
